In the NIST ThermoML archive (doi:10.1016/j.jct.2018.02.013):
± gives the expanded uncertainty stated by the source.

Assays:
[1] = wn = mass fraction of the nth substance listed; details: 101 kPa, Liquid; for mass density: Vibrating tube method; for thermal conductivity: transient hot wire; for viscosity: Cone and plate viscometry; for electrical conductivity: Direct current cell with electrodes
[2] = molar heat capacity at constant pressure; wn = mass fraction of the nth substance listed; details: 101 kPa, Liquid, Small sample (50 mg) DSC

CCCC(=O)[O-].CCCCCCCCCCCCCC[P+](CCCCCC)(CCCCCC)CCCCCC [trihexyl(tetradecyl)phosphonium butyrate] + O
w2 = 0.1668
Details	electrical conductivity [S/m]	mass density [kg/m3]	molar heat capacity at constant pressure [J/K/mol]	thermal conductivity [W/m/K]	viscosity [mPa·s]
[1], 298.15 K	–	907.8 ± 1.9	–	0.189 ± 0.01	–
[1], 298.2 K	–	–	–	–	61.46 ± 3.8
[1], 302.4 K	0.11 ± 0.0049	–	–	–	–
[1], 303.15 K	–	904.6 ± 1.9	–	–	–
[1], 303.2 K	–	–	–	–	48.17 ± 3
[1], 303.9 K	0.118 ± 0.0051	–	–	–	–
[1], 307.87 K	–	–	–	0.188 ± 0.01	–
[1], 308.2 K	–	–	–	–	38.54 ± 2.4
[1], 308.4 K	0.14 ± 0.006	–	–	–	–
[1], 313.15 K	–	898.3 ± 1.9	–	–	–
[1], 313.2 K	0.168 ± 0.0072	–	–	–	31.4 ± 1.9
[1], 317.99 K	–	–	–	0.1859 ± 0.011	–
[1], 318.2 K	–	–	–	–	25.96 ± 1.6
[1], 318.8 K	0.205 ± 0.0086	–	–	–	–
[1], 323.15 K	–	891.9 ± 1.9	–	–	–
[1], 323.2 K	0.235 ± 0.0099	–	–	–	21.94 ± 1.3
[1], 327.77 K	–	–	–	0.1848 ± 0.011	–
[1], 328.2 K	–	–	–	–	18.8 ± 1.1
[1], 328.4 K	0.277 ± 0.012	–	–	–	–
[1], 333.15 K	–	885 ± 1.8	–	–	–
[1], 333.2 K	–	–	–	–	16.05 ± 0.98
[1], 333.4 K	0.322 ± 0.013	–	–	–	–
[1], 338.18 K	–	–	–	0.1828 ± 0.011	–
[1], 338.2 K	–	–	–	–	13.85 ± 0.85
[1], 338.8 K	0.38 ± 0.016	–	–	–	–
[1], 343.15 K	–	877.8 ± 1.8	–	–	–
[1], 343.2 K	0.423 ± 0.018	–	–	–	11.94 ± 0.73
[1], 347.9 K	–	–	–	0.1818 ± 0.01	–
[1], 348.2 K	–	–	–	–	10.37 ± 0.63
[1], 349.7 K	0.499 ± 0.021	–	–	–	–
[1], 353.15 K	–	870.5 ± 1.8	–	–	–
[1], 353.2 K	–	–	–	–	9.056 ± 0.55
[1], 358.2 K	–	–	–	0.1808 ± 0.011	8.136 ± 0.5
[1], 363.15 K	–	863.9 ± 1.8	–	–	–
[1], 363.2 K	–	–	–	–	7.26 ± 0.44
[1], 368.2 K	–	–	–	–	7.063 ± 0.43
[2], 298.15 K	–	–	316.94 ± 19	–	–
[2], 303.15 K	–	–	319.46 ± 20	–	–
[2], 308.15 K	–	–	321.6 ± 20	–	–
[2], 313.15 K	–	–	324.22 ± 20	–	–
[2], 318.15 K	–	–	327.2 ± 20	–	–
[2], 323.15 K	–	–	330.19 ± 20	–	–
[2], 328.15 K	–	–	333.45 ± 21	–	–
[2], 333.15 K	–	–	336.44 ± 21	–	–
[2], 338.15 K	–	–	340.64 ± 21	–	–
[2], 343.15 K	–	–	344.65 ± 21	–	–
[2], 348.15 K	–	–	348.29 ± 21	–	–
[2], 353.15 K	–	–	351.74 ± 22	–	–
[2], 358.15 K	–	–	356.22 ± 22	–	–
[2], 363.15 K	–	–	360.42 ± 22	–	–

CCCCCC(=O)[O-].CCCCCCCCCCCCCC[P+](CCCCCC)(CCCCCC)CCCCCC [trihexyl(tetradecyl)phosphonium hexanoate] + O
w2 = 0.1583
Details	electrical conductivity [S/m]	mass density [kg/m3]	molar heat capacity at constant pressure [J/K/mol]	thermal conductivity [W/m/K]	viscosity [mPa·s]
[1], 298.15 K	–	905 ± 1.9	–	–	–
[1], 298.2 K	–	–	–	–	79.44 ± 4.9
[1], 298.75 K	–	–	–	0.1871 ± 0.01	–
[1], 299.4 K	0.0753 ± 0.0034	–	–	–	–
[1], 303.15 K	–	901.7 ± 1.9	–	–	–
[1], 303.2 K	–	–	–	–	63.83 ± 3.9
[1], 304 K	0.0926 ± 0.004	–	–	–	–
[1], 307.76 K	–	–	–	0.1858 ± 0.0093	–
[1], 308.1 K	0.11 ± 0.0047	–	–	–	–
[1], 308.2 K	–	–	–	–	51.41 ± 3.1
[1], 313.15 K	–	894.6 ± 1.9	–	–	–
[1], 313.2 K	–	–	–	–	41.45 ± 2.5
[1], 313.9 K	0.132 ± 0.0056	–	–	–	–
[1], 317.72 K	–	–	–	0.1838 ± 0.01	–
[1], 318.2 K	–	–	–	–	34.56 ± 2.1
[1], 318.4 K	0.16 ± 0.0068	–	–	–	–
[1], 323.15 K	–	888 ± 1.8	–	–	–
[1], 323.2 K	–	–	–	–	29.8 ± 1.8
[1], 323.6 K	0.184 ± 0.0077	–	–	–	–
[1], 327.36 K	–	–	–	0.1824 ± 0.01	–
[1], 328 K	0.217 ± 0.0091	–	–	–	–
[1], 328.2 K	–	–	–	–	24.98 ± 1.5
[1], 333.15 K	–	880.5 ± 1.8	–	–	–
[1], 333.2 K	–	–	–	–	20.36 ± 1.2
[1], 333.6 K	0.252 ± 0.011	–	–	–	–
[1], 337.88 K	–	–	–	0.1814 ± 0.01	–
[1], 338.2 K	–	–	–	–	17.31 ± 1.1
[1], 338.9 K	0.297 ± 0.012	–	–	–	–
[1], 343 K	0.331 ± 0.014	–	–	–	–
[1], 343.15 K	–	874.2 ± 1.8	–	–	–
[1], 343.2 K	–	–	–	–	15.85 ± 0.97
[1], 347.85 K	–	–	–	0.1791 ± 0.011	–
[1], 348.2 K	–	–	–	–	13.19 ± 0.81
[1], 349.3 K	0.391 ± 0.016	–	–	–	–
[1], 353.15 K	–	867.8 ± 1.8	–	–	–
[1], 353.2 K	–	–	–	–	11.18 ± 0.68
[1], 358.05 K	–	–	–	0.1774 ± 0.011	–
[1], 358.2 K	–	–	–	–	10.4 ± 0.63
[1], 363.15 K	–	861 ± 1.8	–	–	–
[1], 363.2 K	–	–	–	–	9.406 ± 0.57
[1], 368.2 K	–	–	–	–	8.038 ± 0.49
[2], 298.15 K	–	–	318.37 ± 20	–	–
[2], 303.15 K	–	–	320.43 ± 20	–	–
[2], 308.15 K	–	–	323.18 ± 20	–	–
[2], 313.15 K	–	–	325.93 ± 20	–	–
[2], 318.15 K	–	–	328.97 ± 20	–	–
[2], 323.15 K	–	–	332.11 ± 21	–	–
[2], 328.15 K	–	–	335.25 ± 21	–	–
[2], 333.15 K	–	–	339.17 ± 21	–	–
[2], 338.15 K	–	–	343.3 ± 21	–	–
[2], 343.15 K	–	–	347.22 ± 21	–	–
[2], 348.15 K	–	–	351.44 ± 22	–	–
[2], 353.15 K	–	–	353.31 ± 22	–	–
[2], 358.15 K	–	–	359 ± 22	–	–
[2], 363.15 K	–	–	365.08 ± 22	–	–
